Measured values reported in patent US10047051B2, “Substituted pyridines and method of use” (AbbVie S.á{acute over (.)}r.l., priority 2015, dated 2018).

Legend:
[1] = target: T1, CFTR G551D mutant (Homo sapiens, UniProt P13569, G551D); assay: YFP-halide influx assay for the CFTR-G551D mutation (HEK293 cells); assay type: cell-based; conditions: forskolin 10.67 μM
T1 construct: expressed in transfected cells; host or cells: HEK293 cells, reverse transfection with plasmids
Description: (§1) The YFP halide influx assay measured the functionality of the cystic fibrosis Transmembrane Conductance regulator (CFTR) channels. The assay was used to evaluate the capacity of compounds to increase the channel opening of existing mutant CFTR channels in the membrane. It makes use of the observation that the yellow fluorescent protein (YFP) variant YFP H148Q, I152L, F47L has its fluorescence substantially quenched by halide ions like Cl^− and I^− (Galietta, L. J. V., Haggie, P. M., Verkman, A. S., 2001. Green fluorescent protein-based halide indicators with improved chloride and iodide affinities. FEBS Lett. 499, 220-224. doi:10.1016/S0014-5793(01)02561-3).
For this purpose, HEK293-cells were seeded in 96 well plates. During seeding, the cells were reverse-transfected with plasmid vectors that direct the expression of the CFTR G551D mutant and of the YFP reporter. Cells were incubated at 37° C., 5% CO2 for 24 hours so as to allow for sufficient expression of the CFTR protein.
The I^−-induced quenching of fluorescence was recorded immediately after injection of I^− for 7 seconds. The capacity of a compound to increase the channel opening was directly correlated with the decrease in fluorescence, and was expressed as (1−(fluorescence after 7 seconds (F)/fluorescence before injection (F0))) and an EC50 was derived from a (1−F/F0) vs compound concentration plot.

[2] = target: T2, CFTR ΔF508 mutant (Homo sapiens, UniProt P13569, DEL508-508); assay: YFP-halide influx assay for the CFTR-ΔF508 mutation (CFBE41o- cells); assay type: cell-based; conditions: forskolin 10.67 μM; for EC50: from (1−F/F0) vs concentration plot
T2 construct: expressed in transfected cells; host or cells: CFBE41o- cells, adenoviral transduction
T2 sequence (P13569 with tags, fused parts or gaps DEL508-508): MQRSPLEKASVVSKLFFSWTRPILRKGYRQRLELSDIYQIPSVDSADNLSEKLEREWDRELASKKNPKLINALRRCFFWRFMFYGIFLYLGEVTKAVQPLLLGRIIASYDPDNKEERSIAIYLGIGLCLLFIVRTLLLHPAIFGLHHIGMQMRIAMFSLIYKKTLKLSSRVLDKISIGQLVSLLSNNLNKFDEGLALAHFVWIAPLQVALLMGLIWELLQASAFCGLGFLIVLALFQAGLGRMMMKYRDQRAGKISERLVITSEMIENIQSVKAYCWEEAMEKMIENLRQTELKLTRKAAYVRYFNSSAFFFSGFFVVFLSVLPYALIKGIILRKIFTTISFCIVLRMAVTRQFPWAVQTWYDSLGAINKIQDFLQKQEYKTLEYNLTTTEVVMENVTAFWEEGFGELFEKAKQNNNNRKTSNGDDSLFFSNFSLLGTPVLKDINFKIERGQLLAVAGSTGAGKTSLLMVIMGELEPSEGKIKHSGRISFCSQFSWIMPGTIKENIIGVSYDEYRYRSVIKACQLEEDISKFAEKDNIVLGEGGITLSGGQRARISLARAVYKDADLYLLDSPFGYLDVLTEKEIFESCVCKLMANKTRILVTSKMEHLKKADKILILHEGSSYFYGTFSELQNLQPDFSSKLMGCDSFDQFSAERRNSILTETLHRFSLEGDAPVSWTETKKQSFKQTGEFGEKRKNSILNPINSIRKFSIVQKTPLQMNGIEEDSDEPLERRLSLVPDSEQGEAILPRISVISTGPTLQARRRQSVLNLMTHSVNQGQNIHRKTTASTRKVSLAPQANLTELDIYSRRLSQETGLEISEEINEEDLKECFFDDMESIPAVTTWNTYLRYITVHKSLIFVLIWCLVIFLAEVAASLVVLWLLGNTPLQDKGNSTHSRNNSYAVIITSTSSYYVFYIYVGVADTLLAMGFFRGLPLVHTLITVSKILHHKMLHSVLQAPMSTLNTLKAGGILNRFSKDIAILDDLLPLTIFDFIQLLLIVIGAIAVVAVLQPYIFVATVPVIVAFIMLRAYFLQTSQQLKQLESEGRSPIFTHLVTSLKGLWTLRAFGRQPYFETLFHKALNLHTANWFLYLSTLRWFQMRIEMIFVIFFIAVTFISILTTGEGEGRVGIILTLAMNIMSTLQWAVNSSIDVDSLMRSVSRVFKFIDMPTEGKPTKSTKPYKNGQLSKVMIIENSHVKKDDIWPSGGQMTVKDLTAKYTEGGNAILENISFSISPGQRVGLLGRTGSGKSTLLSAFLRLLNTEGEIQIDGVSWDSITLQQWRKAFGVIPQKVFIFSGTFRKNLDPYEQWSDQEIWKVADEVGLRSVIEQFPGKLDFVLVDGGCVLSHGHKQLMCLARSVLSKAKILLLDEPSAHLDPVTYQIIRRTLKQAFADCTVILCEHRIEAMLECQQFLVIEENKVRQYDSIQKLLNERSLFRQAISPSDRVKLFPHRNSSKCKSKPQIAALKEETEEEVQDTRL
Description: as §1, with “channels in the cystic fibrosis bronchial epithelium cell line CFBE41o-.” for “channels.”, “open probability” for “channel opening”, “existing” for “existing mutant”, “doi:10.1016/S0014-5793(01)02561-3; Nagai, T., Ibata, K., Park, E. S., Kubota, M., Mikoshiba, K., Miyawaki, A., 2002. A variant of yellow fluorescent protein with fast and efficient maturation for cell-biological applications. Nat. Biotechnol. 20, 87-90. doi: 10.1038/nbt0102-87).” for “doi:10.1016/S0014-5793(01)02561-3).”
For this purpose, CFBE41o-cells were seeded in 384 well plates (3000 CFBE cells/well). One day after seeding, the CFBE cells were transduced with adenoviral vectors that direct the expression of the CFTR ΔF508 mutant and of the YFP reporter. Cells were incubated at 27° C., 5% CO2 for 24 hours so as to allow for the proper folding and migration to the membrane of the CFTR channel or treated with a CFTR modulator during 24 hours at 37° C.
The I-induced quenching of fluorescence was recorded on an immediately after injection of iodide for 2 minutes on an FDSS/μCell (Hamamatsu). The capacity of a compound to increase the channel opening was directly correlated with the decrease in fluorescence, and was expressed as (1−(fluorescence after 36 seconds (F)/fluorescence before injection (F0))) and an EC50 was derived from a (1−F/F0) vs compound concentration plot.

T1 sequence (P13569 whole entry G551D): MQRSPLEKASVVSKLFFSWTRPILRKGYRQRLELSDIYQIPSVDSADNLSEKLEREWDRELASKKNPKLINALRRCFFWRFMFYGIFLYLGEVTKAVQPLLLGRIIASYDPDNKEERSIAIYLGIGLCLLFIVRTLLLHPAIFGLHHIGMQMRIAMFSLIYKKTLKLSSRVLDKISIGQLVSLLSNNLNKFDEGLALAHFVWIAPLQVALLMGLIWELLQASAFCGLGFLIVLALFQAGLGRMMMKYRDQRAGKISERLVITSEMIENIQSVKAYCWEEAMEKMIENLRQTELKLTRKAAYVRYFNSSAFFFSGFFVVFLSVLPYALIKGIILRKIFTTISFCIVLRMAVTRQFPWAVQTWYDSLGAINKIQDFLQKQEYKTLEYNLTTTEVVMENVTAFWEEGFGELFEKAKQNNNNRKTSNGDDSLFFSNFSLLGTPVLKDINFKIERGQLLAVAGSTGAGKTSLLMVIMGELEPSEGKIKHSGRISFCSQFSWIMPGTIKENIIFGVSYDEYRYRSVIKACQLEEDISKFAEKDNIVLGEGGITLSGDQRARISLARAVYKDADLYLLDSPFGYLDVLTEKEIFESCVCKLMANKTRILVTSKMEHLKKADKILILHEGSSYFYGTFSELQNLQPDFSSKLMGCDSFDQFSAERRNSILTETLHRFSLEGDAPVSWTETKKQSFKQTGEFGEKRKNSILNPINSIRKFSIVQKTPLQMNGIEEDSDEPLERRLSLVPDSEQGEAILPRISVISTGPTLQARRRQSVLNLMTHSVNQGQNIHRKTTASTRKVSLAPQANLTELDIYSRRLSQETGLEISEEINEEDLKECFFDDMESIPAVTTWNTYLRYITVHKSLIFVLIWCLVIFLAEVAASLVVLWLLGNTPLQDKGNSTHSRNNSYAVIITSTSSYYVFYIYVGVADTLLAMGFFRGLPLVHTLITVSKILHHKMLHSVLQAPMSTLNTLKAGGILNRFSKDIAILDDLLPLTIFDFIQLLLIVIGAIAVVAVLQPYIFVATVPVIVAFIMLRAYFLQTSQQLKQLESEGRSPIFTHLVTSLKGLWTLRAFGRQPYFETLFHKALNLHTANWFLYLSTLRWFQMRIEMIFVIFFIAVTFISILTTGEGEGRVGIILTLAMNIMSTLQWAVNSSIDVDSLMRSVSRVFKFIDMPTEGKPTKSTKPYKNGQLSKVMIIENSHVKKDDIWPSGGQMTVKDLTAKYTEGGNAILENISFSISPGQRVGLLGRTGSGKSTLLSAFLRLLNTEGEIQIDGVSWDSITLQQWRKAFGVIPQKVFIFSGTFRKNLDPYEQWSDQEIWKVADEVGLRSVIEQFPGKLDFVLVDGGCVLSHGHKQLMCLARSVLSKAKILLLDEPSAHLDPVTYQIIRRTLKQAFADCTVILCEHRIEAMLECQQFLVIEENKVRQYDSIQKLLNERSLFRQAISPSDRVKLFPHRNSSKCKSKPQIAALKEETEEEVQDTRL

SMILES	% Activation [1]	EC50 [1]	% Activation [2]	EC50 [2]
Nc1cc(S(=O)(=O)c2ccc(OC(F)(F)F)cc2F)cnc1C(=O)NC[C@@H]1CCOC1 [Compound 116, 3-amino-5-{[2-fluoro-4-(trifluoromethoxy)phenyl]sulfonyl}-N-[(3S)-tetrahydrofuran-3-ylmethyl]pyridine-2-carboxamide]	50.0%	1400 nM	101.1%	27.7 nM
CN(Cc1ccc(C(F)(F)F)cc1)S(=O)(=O)c1cnc(C(=O)NCC(O)C(F)(F)F)c(N)c1 (centres unmarked) [Compound 211, 3-amino-5-{methyl[4-(trifluoromethyl)benzyl]sulfamoyl}-N-(3,3,3-trifluoro-2-hydroxypropyl)pyridine-2-carboxamide]	24.0%	–	98.4%	24.7 nM
CC[C@@H](CO)NC(=O)c1ncc(S(=O)(=O)c2ccc(C(F)(F)F)cc2)cc1N [Compound 234, 3-amino-N-[(2S)-1-hydroxybutan-2-yl]-5-{[4-(trifluoromethyl)phenyl]sulfonyl}pyridine-2-carboxamide]	46.1%	1090 nM	102.4%	39.3 nM
Nc1cc(S(=O)(=O)c2ccc(OC(F)(F)F)cc2)cnc1C(=O)NCC1CCOCC1 [Compound 129, 3-amino-N-(tetrahydro-2H-pyran-4-ylmethyl)-5-{[4-(trifluoromethoxy)phenyl]sulfonyl}pyridine-2-carboxamide]	25.9%	> 10000 nM	74.9%	180 nM
COCCC(C)(O)CNC(=O)c1ncc(S(=O)(=O)c2ccc(C(F)(F)F)cc2F)cc1N (centres unmarked) [Compound 163, 3-amino-5-{[2-fluoro-4-(trifluoromethyl)phenyl]sulfonyl}-N-(2-hydroxy-4-methoxy-2-methylbutyl)pyridine-2-carboxamide]	71.9%	2300 nM	97.0%	22.6 nM
CN1CC[C@H](NC(=O)c2ncc(S(=O)(=O)c3ccc(OC(F)(F)F)cc3)cc2N)C1 [Compound 207, 3-amino-N-[(3S)-1-methylpyrrolidin-3-yl]-5-{[4-(trifluoromethoxy)phenyl]sulfonyl}pyridine-2-carboxamide]	15.0%	> 10000 nM	78.0%	> 667 nM
Nc1cc(S(=O)(=O)c2ccc(C(F)(F)F)cc2)cnc1C(=O)N[C@H]1CCC[C@@H]1O [Compound 215, 3-amino-N-[(1S,2S)-2-hydroxycyclopentyl]-5-{[4-(trifluoromethyl)phenyl]sulfonyl}pyridine-2-carboxamide]	57.6%	389 nM	109.8%	8.9 nM
Nc1cc(S(=O)(=O)c2ccc(F)cc2)cnc1C(=O)NCC1(O)CC1 [Compound 30, 3-amino-5-[(4-fluorophenyl)sulfonyl]-N-[(1-hydroxycyclopropyl)methyl]pyridine-2-carboxamide]	36.4%	5770 nM	94.6%	53.7 nM
COCCOc1nc(C(=O)NC[C@H](C)O)c(N)cc1S(=O)(=O)c1ccc(OC(F)(F)F)cc1 [Compound 288, 3-amino-N-[(2S)-2-hydroxypropyl]-6-(2-methoxyethoxy)-5-{[4-(trifluoromethoxy)phenyl]sulfonyl}pyridine-2-carboxamide]	78.3%	> 3330 nM	109.0%	8.7 nM
C[C@H](O)CNC(=O)c1ncc(S(=O)(=O)N(C)C2CCC2)cc1N [Compound 278, 3-amino-5-[cyclobutyl(methyl)sulfamoyl]-N-[(2S)-2-hydroxypropyl]pyridine-2-carboxamide]	21.3%	> 10000 nM	105.0%	44.1 nM
COCCN(C)S(=O)(=O)c1cnc(C(=O)NC[C@H](C)O)c(N)c1 [Compound 277, 3-amino-N-[(2S)-2-hydroxypropyl]-5-[(2-methoxyethyl)(methyl)sulfamoyl]pyridine-2-carboxamide]	0.8%	> 10000 nM	65.5%	> 667 nM
Nc1cc(S(=O)(=O)c2ccc(OC(F)(F)F)cc2)cnc1C(=O)N[C@@H]1CCCOC1 [Compound 140, 3-amino-N-[(3R)-tetrahydro-2H-pyran-3-yl]-5-{[4-(trifluoromethoxy)phenyl]sulfonyl}pyridine-2-carboxamide]	39.9%	> 10000 nM	97.7%	51 nM
COc1ccc(S(=O)(=O)c2cnc(C(=O)NCC(O)C(F)(F)F)c(N)c2)cc1 (centres unmarked) [Compound 220, 3-amino-5-[(4-methoxyphenyl)sulfonyl]-N-(3,3,3-trifluoro-2-hydroxypropyl)pyridine-2-carboxamide]	71.6%	791 nM	102.0%	16.9 nM
Nc1cc(S(=O)(=O)c2ccc(OC(F)(F)F)cc2)cnc1C(=O)NCC1CCCOC1 (centres unmarked) [Compound 143, 3-amino-N-(tetrahydro-2H-pyran-3-ylmethyl)-5-{[4-(trifluoromethoxy)phenyl]sulfonyl}pyridine-2-carboxamide]	80.6%	2300 nM	91.4%	136 nM
CC(C)CC(O)CNC(=O)c1ncc(S(=O)(=O)c2ccc(OC(F)(F)F)cc2)cc1N (centres unmarked) [Compound 87, 3-amino-N-(2-hydroxy-4-methylpentyl)-5-{[4-(trifluoromethoxy)phenyl]sulfonyl}pyridine-2-carboxamide]	67.5%	997 nM	102.0%	11.9 nM
C[C@H](O)CNC(=O)c1ncc(S(=O)(=O)c2ccc(C(F)(F)F)cc2F)cc1N [Compound 98, 3-amino-5-{[2-fluoro-4-(trifluoromethyl)phenyl]sulfonyl}-N-[(2S)-2-hydroxypropyl]pyridine-2-carboxamide]	60.2%	685 nM	95.6%	7.4 nM
Nc1cc(S(=O)(=O)c2ccc(OC(F)(F)F)cc2)cnc1C(=O)N1CC(N2CCOCC2)C1 [Compound 60, (3-amino-5-{[4-(trifluoromethoxy)phenyl]sulfonyl}pyridin-2-yl)[3-(morpholin-4-yl)azetidin-1-yl]methanone]	71.1%	3120 nM	105.0%	67.2 nM
Nc1cc(S(=O)(=O)c2ccc(OC(F)(F)F)cc2)cnc1C(=O)N1CC2(CCOC2)C1 [Compound 125, (3-amino-5-{[4-(trifluoromethoxy)phenyl]sulfonyl}pyridin-2-yl)(6-oxa-2-azaspiro[3.4]oct-2-yl)methanone]	84.1%	2210 nM	114.0%	65.6 nM
